Where “and” joins values, the source holds several entries; their conditions need not be identical. Equal entries are not always repeated. Structures can show the parent of a compound that is named as a salt.
Tested on: 5-HIAA release in the rat prefrontal cortex
Assay: Microdialysis: 5-HIAA release in prefrontal cortex after I.P. administration
Type: in vivo
Details: for 5-HIAA (% of respective basal), individual animal: 0.1 mg/kg I.P., c2-c9 = R#13,14,20,19,25,26,31,32; for 5-HIAA (% of respective basal), individual animal / 5-HIAA release, individual animals: hydrochloride; for 5-HIAA release, MEAN / 5-HIAA release, individual animals: 0.3 mg/kg I.P.; for 5-HIAA release, MEAN: n = 8; for 5-HIAA release, individual animals: one column per animal R#11,12,18,23,29,30,17,24
Method: The aim of the study was to evaluate, using microdialysis, the effects of an intraperitoneal (I.P.) administration in rats of three different doses of SON-117 on dopamine and its metabolites, serotonin and its metabolite (5-HIAA), and norepinephrine levels in prefrontal cortex.
Thirty-two adult male Wistar rats were used for the whole study (4 groups of eight animals planned for the study, Table 1).
Surgery was performed on rats weighing about 300 g at the beginning of the experiments. Rats were anaesthetized with Ketamine (50 mg/kg) & Xylazine (15 mg/kg) by intramuscular administration. The animals were placed in a stereotaxic apparatus in the flat-skull position at a constant setting of −3.3 mm between ear bars and the incisor bar. The animals were treated with a local anesthesic (xylocaine 1%, Astra Zeneca) and an analgesic (Temgesic, from Schering Plough, 0.05 mg/kg, s.c.). A rostrocaudal midline incision was made with a lancet to expose the dorsal skull surface. The “stereotaxic zero” was defined by the Bregma in accordance with Paxinos and Watson's atlas (1986). A hole was drilled in the skull with a drill and the meninges were pierced with a sterile needle to implant a CMA12 guide cannula which later received the dialysis probe.
Coordinates used for implanting guide cannula in prefrontal cortex from Bregma were anteroposterior 3.7 mm, mediolateral 0.8 mm, and dorsoventral −2 mm (top of the probe was at −5 mm). The guide cannula was fixed to the skull with two stainless steel screws (1.88 mm outside diameter) anchored. An application of dental cement was added. A plastic collar allowed each animal to be tethered to a Swivel assembly of the CMA 120 awake animal system. Following surgery, rats were kept in individual cages and allowed to recover for a minimum of 3-5 days before the experimentation. The rats were handled and put in plastic bowl for 10 min at least every day to habituate the animals to their new environment for the dialysis. An I.P. administration with saline was also performed every day.
Dialysis probes (CMA12/3 mm, membrane, 20 kD cut-off, Carnegie Medicine, Stockholm, Sweden), were carefully washed before inserting into the guide cannula. The wash was performed with the artificial cerebrospinal fluid (aCSF) medium (NaCl 147 mM, KCl 2.7 mM, CaCl2 1.2 mM, MgCl2 0.85 mM) at room temperature. The dialysis system was then equilibrated at 20° C. at a perfusion rate of 1 μl/min with a Carnegie pump (CMA100). All catheters (FEP tubing, internal volume of 1.2 μl/10 cm, and tubing adaptors) used for microdialysis were treated in the same conditions.
The probes duly prepared were inserted into the guide cannula and the CMA120 Swivel assembly secured to the animal using a plastic collar. Flow through the dialysis probe with aCSF was maintained at a rate of 1 μl/min during the whole experimentation. The first four fractions (corresponding to 2 hours) were discarded to avoid the effects of parenchymal disturbance and to ensure that an approximate steady-state level was reached. Fractions were then collected over a period of 8.5 h during which time the animals remained quiet. The dialysates were automatically collected with an autosampler (microfraction collector CMA 140, Carnegie Medicin) and stored at −80° C. until analysis. […] Perfusion was then maintained for 7 hours with aCSF. The dialysates (30 μl) were collected into 300 μl vials, transferred into dry ice and then kept frozen (−80° C.) until analysis. Frozen samples were shipped to a partner for analysis. At the end of the microdialysis study, a PBS with colored ink was perfused through the probe in order to visualize the dialyzed area.
Catecholamine assay: Concentrations of dopamine, DOPAC, HVA, 5-HIAA, 5-HT, and norepinephrin were determined for each sample by HPLC coupled with electrochemical detection.

## Cc1nnc(-c2cc3c(OC[C@@H](O)CN4CCC(c5ccc(Cl)c(Cl)c5)CC4)cccc3o2)o1 [SON-117, (S)-1-(4-(3,4-dichlorophenyl)piperidino)-3-(2-(5-methyl-1,3,4-oxadiazol-2-yl)benzo(b)furan-4-yloxy)-2-propanol hydrochloride]
T30-T1 h
  5-HIAA (% of respective basal), individual animal: 123.49 % of respective basal and 103.49 % of respective basal and 107.39 % of respective basal and 112.69 % of respective basal and 111.19 % of respective basal and 139.2 % of respective basal and 117.52 % of respective basal and 104.09 % of respective basal
  5-HIAA release, MEAN: 100.34 % of respective basal
  5-HIAA release, individual animals: 98.98 % of respective basal and 79.36 % of respective basal and 110.17 % of respective basal and 105.67 % of respective basal and 80.63 % of respective basal and 95.45 % of respective basal and 117.90 % of respective basal and 114.56 % of respective basal
T1 h 30-T2 h
  5-HIAA (% of respective basal), individual animal: 92.61 % of respective basal and 104.00 % of respective basal and 73.42 % of respective basal and 136.95 % of respective basal and 121.36 % of respective basal and 90.88 % of respective basal and 109.96 % of respective basal and 88.3 % of respective basal
  5-HIAA release, MEAN: 92.27 % of respective basal
  5-HIAA release, individual animals: 107.81 % of respective basal and 80.74 % of respective basal and 99.11 % of respective basal and 100.15 % of respective basal and 74.98 % of respective basal and 49.45 % of respective basal and 122.26 % of respective basal and 103.65 % of respective basal
T1 h-T1 h 30
  5-HIAA (% of respective basal), individual animal: 133.03 % of respective basal and 136.32 % of respective basal and 86.58 % of respective basal and 118.45 % of respective basal and 137.53 % of respective basal and 136.04 % of respective basal and 114.03 % of respective basal and 94.61 % of respective basal
  5-HIAA release, MEAN: 98.46 % of respective basal
  5-HIAA release, individual animals: 102.59 % of respective basal and 87.99 % of respective basal and 119.49 % of respective basal and 107.50 % of respective basal and 64.53 % of respective basal and 82.55 % of respective basal and 108.28 % of respective basal and 114.78 % of respective basal
T2 h 30-T3 h
  5-HIAA (% of respective basal), individual animal: 85.72 % of respective basal and 87.35 % of respective basal and 46.33 % of respective basal and 101.63 % of respective basal and 145.61 % of respective basal and 142.25 % of respective basal and 116.28 % of respective basal and 27.66 % of respective basal
  5-HIAA release, MEAN: 88.58 % of respective basal
  5-HIAA release, individual animals: 90.73 % of respective basal and 88.56 % of respective basal and 94.96 % of respective basal and 87.45 % of respective basal and 59.92 % of respective basal and 79.89 % of respective basal and 107.14 % of respective basal and 99.98 % of respective basal
T2 h-T2 h 30
  5-HIAA (% of respective basal), individual animal: 100.99 % of respective basal and 85.23 % of respective basal and 60.74 % of respective basal and 101.82 % of respective basal and 125.47 % of respective basal and 100.57 % of respective basal and 111.12 % of respective basal and 50.78 % of respective basal
  5-HIAA release, MEAN: 88.16 % of respective basal
  5-HIAA release, individual animals: 82.87 % of respective basal and 87.22 % of respective basal and 100.63 % of respective basal and 93.66 % of respective basal and 63.67 % of respective basal and 70.87 % of respective basal and 109.73 % of respective basal and 96.64 % of respective basal
T3 h 30-T4 h
  5-HIAA (% of respective basal), individual animal: 85.88 % of respective basal and 94.27 % of respective basal and 31.74 % of respective basal and 96.48 % of respective basal and 188.3 % of respective basal and 137.13 % of respective basal and 101.46 % of respective basal and 21.73 % of respective basal
T3 h-T3 h 30
  5-HIAA (% of respective basal), individual animal: 129.21 % of respective basal and 80.95 % of respective basal and 41.77 % of respective basal and 96.17 % of respective basal and 133.55 % of respective basal and 113.01 % of respective basal and 113.45 % of respective basal and 29.04 % of respective basal
T4 h 30-T5 h
  5-HIAA (% of respective basal), individual animal: 135.57 % of respective basal and 84.63 % of respective basal and 82.26 % of respective basal and 21.52 % of respective basal and 127.36 % of respective basal and 130.30 % of respective basal and 108.83 % of respective basal and 86.42 % of respective basal
T4 h-T4 h 30
  5-HIAA (% of respective basal), individual animal: 155.28 % of respective basal and 81.87 % of respective basal and 29.82 % of respective basal and 104.10 % of respective basal and 154.95 % of respective basal and 128.712 % of respective basal and 116.56 % of respective basal and 100.63 % of respective basal
T5 h 30-T6 h
  5-HIAA (% of respective basal), individual animal: 139.17 % of respective basal and 82.04 % of respective basal and 19.18 % of respective basal and 72.04 % of respective basal and 120.26 % of respective basal and 106.59 % of respective basal and 103.65 % of respective basal and 79.99 % of respective basal
T5 h-T5 h 30
  5-HIAA (% of respective basal), individual animal: 141.25 % of respective basal and 94.73 % of respective basal and 20.29 % of respective basal and 84.33 % of respective basal and 123.82 % of respective basal and 104.61 % of respective basal and 111.73 % of respective basal and 87.84 % of respective basal
T6 h 30-T7 h
  5-HIAA (% of respective basal), individual animal: 142.73 % of respective basal and 92.55 % of respective basal and 23.25 % of respective basal and 79.21 % of respective basal
T6 h-T6 h 30
  5-HIAA (% of respective basal), individual animal: 150.15 % of respective basal and 87.80 % of respective basal and 10.87 % of respective basal and 82.34 % of respective basal and 124.74 % of respective basal and 107.55 % of respective basal and 96.41 % of respective basal and 77.86 % of respective basal
T0-T30 min
  5-HIAA release, MEAN: 103.44 % of respective basal

Source: patent US20250109127A1, “METHODS OF USE OF PHENOXYPROPYLAMINE COMPOUNDS TO TREAT DEPRESSION” (Minerva Neurosciences, Inc., priority 2013, published 2025)
